Test results taken from patent US9113629B2, “4-amino-6-(4-substituted-phenyl)-picolinates and 6-amino-2-(4-substituted-phenyl)-pyrimidine-4-carboxylates and their use as herbicides” (DOW AGROSCIENCES LLC, priority 2013, dated 2015).
Read-outs that look alike come from different tables or passages of the source.

What was measured:
[1] = system: Key Grass and Sedge Weeds as well as Grass Crops; assay: Post-emergent Test II herbicidal activity (Table 6); format: in vivo; details: post-emergence, 336 h, application rate 140 g ai/ha
Protocol: (§1) Post-emergent Test II: Seeds or nutlets of the desired test plant species were planted in Sun Gro Metro-Mix® 360 planting mixture, which typically has a pH of 6.0 to 6.8 and an organic matter content of about 30 percent, in plastic pots with a surface area of 64 square centimeters. When required to ensure good germination and healthy plants, a fungicide treatment and/or other chemical or physical treatment was applied. The plants were grown for 7-21 d in a greenhouse with an approximate 15 h photoperiod which was maintained at about 23-29° C. during the day and 22-28° C. during the night. Nutrients and water were added on a regular basis and supplemental lighting was provided with overhead metal halide 1000-Watt lamps as necessary. The plants were employed for testing when they reached the first or second true leaf stage.
(§2) A weighed amount, determined by the highest rate to be tested, of each test compound was placed in a 25 mL glass vial and was dissolved in 4 mL of a 97:3 v/v mixture of acetone and DMSO to obtain concentrated stock solutions. […] The concentrated stock solutions obtained were diluted with 20 mL of an aqueous mixture containing acetone, water, isopropyl alcohol, DMSO. Atplus 411F crop oil concentrate, and Triton® X-155 surfactant in a 48.5:39:10:1.5:1.0:0.02 v/v ratio to obtain spray solutions containing the highest application rates. Additional application rates were obtained by serial dilution of 12 mL of the high rate solution into a solution containing 2 mL of 97:3 v/v mixture of acetone and DMSO and 10 mL of an aqueous mixture containing acetone, water, isopropyl alcohol, DMSO, Atplus 411F crop oil concentrate, and Triton X-155 surfactant in a 48.5:39:10:1.5:1.0:0.02 v/v ratio to obtain ½×, ¼×, ⅛× and 1/16× rates of the high rate. Compound requirements are based upon a 12 mL application volume at a rate of 187 liters per hectare (L/ha). Formulated compounds were applied to the plant material with an overhead Mandel track sprayer equipped with 8002E nozzles calibrated to deliver 187 L/ha over an application area of 0.503 square meters at a spray height of 18 inches (43 cm) above the average plant canopy height. Control plants were sprayed in the same manner with the solvent blank.
(§3) The treated plants and control plants were placed in a greenhouse as described above and watered by subirrigation to prevent wash-off of the test compounds. After 14 d, the condition of the test plants as compared with that of the untreated plants was determined visually and scored on a scale of 0 to 100 percent where 0 corresponds to no injury and 100 corresponds to complete kill.

[2] = system: Key Broadleaf Weed and Crop Species; assay: Post-emergent Test II herbicidal activity (Table 5); format: in vivo; details: post-emergence, 336 h, 140 g ai/ha, post-emergent, 14 days after application
Protocol: as §1, §2, §3

[3] = Triticum aestivum, TRZSS (wheat), read-out: Visual Growth Reduction (%) 14 Days After Application, TRZSS
[4] = CYPES: yellow nutsedge (Cyperus esculentus), read-out: Visual Growth Reduction (%) 14 Days After Application, CYPES
[5] = DIGSA: crabgrass (Digitaria sanguinalis), read-out: Visual Growth Reduction (%) 14 Days After Application, DIGSA
[6] = ECHCG: barnyardgrass (Echinochloa crus-galli), read-out: Visual Growth Reduction (%) 14 Days After Application, ECHCG
[7] = ORYSA: rice (Oryza sativa), read-out: Visual Growth Reduction (%) 14 Days After Application, ORYSA
[8] = SETFA: giant foxtail (Setaria faberi), read-out: Visual Growth Reduction (%) 14 Days After Application, SETFA
[9] = SORVU: grain sorghum (Sorghum vulgare), read-out: Visual Growth Reduction (%) 14 Days After Application, SORVU
[10] = ZEAMX: maize, corn (Zea mays), read-out: Visual Growth Reduction (%) 14 Days After Application, ZEAMX
[11] = ABUTH: velvetleaf (Abutilon theophrasti), read-out: Visual Growth Reduction (%) 14 Days After Application ABUTH
[12] = AMARE: redroot pigweed (Amaranthus retroflexus), read-out: Visual Growth Reduction (%) 14 Days After Application AMARE
[13] = BRSNN: oilseed-rape, canola (Brassica napus), read-out: Visual Growth Reduction (%) 14 Days After Application BRSNN
[14] = CHEAL: lambsquarters (Chenopodium album), read-out: Visual Growth Reduction (%) 14 Days After Application CHEAL
[15] = EPHHL: wild poinsettia (Euphorbia heterophylla), read-out: Visual Growth Reduction (%) 14 Days After Application EPHHL
[16] = HELAN: sunflower (Helianthus annuus), read-out: Visual Growth Reduction (%) 14 Days After Application HELAN
[17] = VIOTR: wild pansy (Viola tricolor), read-out: Visual Growth Reduction (%) 14 Days After Application VIOTR

Row | SMILES | pest or weed control at 140 g/ha [1, 3] [%] | pest or weed control at 140 g/ha [1, 4] [%] | pest or weed control at 140 g/ha [1, 5] [%] | pest or weed control at 140 g/ha [1, 6] [%] | pest or weed control at 140 g/ha [1, 7] [%] | pest or weed control at 140 g/ha [1, 8] [%] | pest or weed control at 140 g/ha [1, 9] [%] | pest or weed control at 140 g/ha [1, 10] [%] | melting point [°C] | pest or weed control at 140 g/ha [2, 11] [%] | pest or weed control at 140 g/ha [2, 12] [%] | pest or weed control at 140 g/ha [2, 13] [%] | pest or weed control at 140 g/ha [2, 14] [%] | pest or weed control at 140 g/ha [2, 15] [%] | pest or weed control at 140 g/ha [2, 16] [%] | pest or weed control at 140 g/ha [2, 17] [%]
1 | Nc1c(Cl)c(C(=O)O)nc(-c2ccc(OC(F)F)cc2)c1Cl [Compound 33] | 0 to 29 | 0 to 29 | 0 to 29 | 0 to 29 | 0 to 29 | 0 to 29 | 0 to 29 | 0 to 29 | 146.3 to 147.6 | 60 to 74 | 0 to 29 | 30 to 44 | 0 to 29 | 0 to 29 | 95 to 100 | 0 to 29
2 | C#Cc1ccc(-c2cc(N)c(Cl)c(C(=O)O)n2)cc1 [Compound 48] | 30 to 44 | 0 to 29 | 60 to 74 | 75 to 84 | 0 to 29 | 0 to 29 | 0 to 29 | 0 to 29 | 204.2 to 205.9 | 95 to 100 | 95 to 100 | 85 to 94 | 85 to 94 | 95 to 100 | 95 to 100 | 0 to 29
3 | COC(=O)c1nc(-c2ccc(Br)cc2)c(C)c(N)c1Cl [Compound 81, methyl 4-amino-6-(4-bromophenyl)-3-chloro-5-methylpicolinate] | 45 to 59 | 0 to 29 | 45 to 59 | 0 to 29 | 0 to 29 | 60 to 74 | 75 to 84 | 75 to 84 | 128 to 130 | 95 to 100 | 95 to 100 | 60 to 74 | 95 to 100 | 75 to 84 | 95 to 100 | 0 to 29
